Experimental data taken from US8883718B2, “Treating cancer” (Theryte Limited, priority 2008, dated 2014).
[ ]: non-standard residue; d: D form.

How the values were obtained:
cancer cell = test: effect of amino acid stereochemistry on cancer cell-killing activity; type: cell-based
Source text: The peptides used were: THR75 (SEQ ID NO: 24, cyc-[PRGPRPValklalklal]); THR77 (SEQ ID NO: 25, cyc-[PRGPRPValklalklaL]); THR78 (SEQ ID NO: 26, cyc-[[…]lklalklaL]; THR79 (SEQ ID NO: 11 cyc-[PRGPRPvalklalklal]). Upper case denotes the L isomer of the amino acids and lower case denotes the D isomer.
It has also been discovered that the stereochemistry of the amino acids in the peptide sequence is relevant to efficacy. Analogues of THR54 (SEQ ID NO: 10) in which certain L-amino-acids have been replaced with D-amino-acids were prepared.
This was THR79 in which was approximately 2-4 times as active as THR54.

[1] = test system: MGHU-1 Human transitional bladder cancer cells; conditions: cited from earlier work
[2] = test system: Normal diploid human fibroblasts; test: normal diploid human fibroblasts in short term culture; type: cell-based
Procedure: (§1) Normal diploid human fibroblasts in short term culture were unaffected (FIG. 2b). […] However, PRGPRP (SEQ ID NO: 2) is only effective at killing RT112 bladder cancer cells at a concentration of 5.0 mM. Because of concern that such high peptide doses might cause artefactual, non-specific effects, structure/function studies were carried out.

[3] = test system: MGHU-1 Human transitional bladder cancer cells; test: in-vitro culture of MGHU-1 bladder cancer cells, cell death observed morphologically; type: cell-based
Procedure: as §1
5 mM was required to produce 100% lethality in in vitro experiments on RT 112 (FIG. 2a) or MGHU-1 human bladder cancer cells. This limits the applicability of PRGPRP (SEQ ID NO: 2) to therapy even though it has selected killing activity in human cancer cells but not normal human fibroblasts.

[4] = test system: normal human diploid fibroblasts; test: MTS cell viability assay, fibroblasts; type: cell-based; conditions: 12.5 to 100 μM, 2-4 weeks
Procedure: (§2) The effect of these peptides was tested on both human fibroblasts and H460 human non-small cell […] cancer cells at doses in the range 12.5 to 100 μM. The peptides were tested in vitro by exposure to 100 H460 human non-small cell lung cancer cells, or short term cultures of normal human diploid fibroblasts, in 200 ul of Ham's F12 tissue culture medium supplemented with 10% FCS. Cells were set up in 100 ul on day 0 and 24 hours later a further 100 ul of the same medium containing ×2 the appropriate concentration of peptide over a range of 12.5-100 uM was added. The cells were then incubated at 37° C., 5% CO2 in an humidified incubator for 2-4 weeks.
(§3) Cell viability was measured by an MTS assay (CellTiter 96^R Non-Radioactive Cell Proliferation Assay. Promega Corporation, 2800 Woods Hollow Road, Madison Wis. 53711-5399 USA). The original form of this assay was described by Mosmann (J. Immunol. Meth. 65; 55-63. 1983) and gives a colorometric reading whose intensity depends on the conversion, by viable cells, of a tetrazolium salt into a coloured formazan which is easily quantified by colorimetric reading of a 96 well assay plate.

[5] = test system: Cdk1 compared to Cdk4 in RT112 cells; test: sequential Western blots of RT112 cells after peptide exposure; type: cell-based, human; conditions: over 15 days
Source text: Peptides were introduced at day 0 and left in-situ throughout the experiment.
In a clinical context this might provide a biomarker of therapeutic efficacy. […] Such a homogeneous therapeutic response is in marked contrast to the wide range of variability in dose response of different cancer cell lines seen with conventional chemotherapeutic agents^24. Cancer cells both underwent successful mitosis and died (FIG. 3f) or died in interphase (FIG. 7d). […] MRC-hTERT fibroblasts (FIG. 7c) and short term cultures of normal diploid human keratinocytes (FIG. 3h) were not killed by 200 μM THR53.

[6] = test system: RT112 human bladder cancer cells; test: clonogenic assay on RT112 cells; type: cell-based
Procedure: as §1
(§4) The first experiments were carried out on cyc-[[…]] (THR 53, (SEQ ID NO: 9)), see FIG. 4. Whilst the 96 well assays described in Example 3 are suitable for initial screening of small amounts of peptide material the long incubation periods in dense culture do themselves compromise cell viability to some extent. […] In clonogenic assays, (previously described by Warenius et al Br J Cancer (2000) 83(8), 1048-1059) single cell suspensions of 100 cells are plated in plentiful volumes of 2 ml of Ham's F12 tissue culture medium supplemented with 10% FCS and incubated for 15, 20 or 25 days. A high percentage of the plated cells (40-60% in the case of H460) go through repeated doublings to yield colonies of 200 or more cells which can be easily visualized by the naked eye and counted under a low power lens when stained by giemsa stain.

[7] = test system: H460 human non-small cell lung cancer cells; test: MTS cell viability assay, H460 cells; type: cell-based; conditions: H460, 12.5 to 100 μM, 2-4 weeks
Procedure: as §2, §3

Fibroblasts = test: Cell killing by cyclic peptides, fibroblasts (Table 2); type: cell-based; parameters: key: - - - = No cell killing
Procedure: (§5) Table 2 lists cyclic peptides including the PRGPRP (SEQ ID NO:2) sequence which have no effect on RT112 bladder cancer cells at a concentration of 100 μM.

[8] = test system: RT112 bladder cancer cells; test: Cell killing by cyclic peptides, RT112 (Table 2); type: cell-based, human; parameters: key: - - - = No cell killing; conditions: 100 μM
Procedure: as §5

[9] = test system: H460 human non-small cell lung cancer cells; test: clonogenic assay on H460 cells; type: cell-based
Procedure: as §4
The efficacy of THR53 was compared to Ac-PRGPRP-NH2 (SEQ ID NO: 2) using a clonogenic assay.

Question: What does the source list for “cyc-[PRGPRPvalklalklal] (cyclo(PRGPRP[dV][dA][dL][dK][dL][dA][dL][dK][dL][dA][dL]); SMILES CC(C)C[C@H]1NC(=O)[C@@H](C)NC(=O)[C@@H](C(C)C)NC(=O)[C@@H]2CCCN2C(=O)[C@H](CCCNC(=N)N)NC(=O)[C@@H]2CCCN2C(=O)CNC(=O)[C@H](CCCNC(=N)N)NC(=O)[C@@H]2CCCN2C(=O)[C@@H](CC(C)C)NC(=O)[C@@H](C)NC(=O)[C@@H](CC(C)C)NC(=O)[C@@H](CCCCN)NC(=O)[C@@H](CC(C)C)NC(=O)[C@@H](C)NC(=O)[C@@H](CC(C)C)NC(=O)[C@@H](CCCCN)NC1=O) [THR79]”?
Answer: activity relative to THR54 (cancer cell): 2-4 times; cancer cell-killing activity (cancer cell): showed cancer cell-killing properties

Question: With “cyc-[PRGPRPVPRGPRPVPRGPRPV] (cyclic; Cyclic peptide; /note=“cyclic peptide”) [cyclic peptide disclosed in WO2005/123760]” as the substance, how does the “effect on MGHU1 cells as disclosed in WO2005/123760” value [1] read?
Answer: caused morphological changes

Question: And the “effect on normal fibroblasts” value [2]?
Answer: markedly stimulate

Question: What about the “killing of MGHU1 cells” value [3] of the same substance?
Answer: did not kill

Question: With “Ac-PRRPGPVKLALKLALKAL-NH2 [THR51C, control for THR51 in which one arginine was switched with a glycine, reference compound]” as the substance, how does the “killing of fibroblasts (cell viability, MTS)” value [4] read?
Answer: non-specific killing

Question: Which cancer cell-killing activity (cancer cell) does the source give for “cyc-[PRGPRPVALKLALKLAL] (cyclic; Cyclic peptide; /note=“cyclic peptide”) [THR54]” here?
Answer: active

Question: With “Ac-Pro-Arg-Arg-Pro-Gly-Pro-NH2 (Ac-PRRPGP-NH2)” as the substance, how does the “change in Cdk1 compared to Cdk4” value [5] read?
Answer: not seen

Question: And the “cancer cell lethality / activity in clonogenic assay” value ([6]; RT112)?
Answer: inactive

Question: Which “cancer cell killing (cell viability, MTS)” value [7] does the source give for “Ac-PRGPRPVKLALKLALKAL-NH2 [THR51, linear peptide outside the scope of the invention]” here?
Answer: improvement in cancer cell killing over PRGPRP

Question: What about the “killing of fibroblasts (cell viability, MTS)” value [4] of the same substance?
Answer: equally as well killed

Question: For “Cyc-[AAGPGGPRGPRPGGPGAA] (cyclic; Cyclic peptide; /note=“cyclic peptide”)”, which “Cell Killing Fibroblasts” value (Fibroblasts) is on record?
Answer: - - -

Question: What about the “Cell Killing RT112” value [8] of the same substance?
Answer: - - -

Question: Which results are given for “Cyc-[GGGGPRGPRPGGGGPRGPRPVPRGPRPV] (cyclic; Cyclic peptide; /note=“cyclic peptide”)”?
Answer: Cell Killing Fibroblasts (Fibroblasts): - - -; Cell Killing RT112 [8]: - - -

Question: For “cyc-[PRGPRPValklalklal] (cyclo(PRGPRPV[dA][dL][dK][dL][dA][dL][dK][dL][dA][dL]); SMILES CC(C)C[C@H]1NC(=O)[C@@H](C)NC(=O)[C@H](C(C)C)NC(=O)[C@@H]2CCCN2C(=O)[C@H](CCCNC(=N)N)NC(=O)[C@@H]2CCCN2C(=O)CNC(=O)[C@H](CCCNC(=N)N)NC(=O)[C@@H]2CCCN2C(=O)[C@@H](CC(C)C)NC(=O)[C@@H](C)NC(=O)[C@@H](CC(C)C)NC(=O)[C@@H](CCCCN)NC(=O)[C@@H](CC(C)C)NC(=O)[C@@H](C)NC(=O)[C@@H](CC(C)C)NC(=O)[C@@H](CCCCN)NC1=O) [THR 75]”, which “cancer cell-killing activity at 100 uM” value (cancer cell; 100 uM concentration) is on record?
Answer: remove the activity

Question: With “Cyc-[AAAGGGPRGPRPGGGAAA] (cyclic; Cyclic peptide; /note=“cyclic peptide”)” as the substance, how does the “Cell Killing Fibroblasts” value (Fibroblasts) read?
Answer: - - -

Question: What about the “Cell Killing RT112” value [8] of the same substance?
Answer: - - -

Question: For “Ac-Pro-Arg-Gly-Pro-Arg-Pro-NH2 (Ac-PRGPRP-NH2) [end-capped hexameric peptide according to WO2005/123760]”, which “effect on H460 cell survival in clonogenic assay” value ([9]; 1 to 10 mM concentration) is on record?
Answer: limited effect

Question: And the “effect on H460 non-small cell lung cancer, clonogenic assay” value ([9]; H460)?
Answer: no effect

Question: What about the “effect on normal diploid human fibroblasts in short term culture” value ([2]; 5.0 mM) of the same substance?
Answer: unaffected

Question: And the “change in Cdk1 compared to Cdk4” value [5]?
Answer: Progressive increase

Question: And the “cell death observed morphologically in-vitro” value ([3]; 5.0 mM, 25 days after exposure)?
Answer: Complete cell death

Question: And the “concentration required to produce 100% lethality” value ([3]; MGHU-1, in vitro)?
Answer: 5 mM

Question: And the “cancer cell lethality / activity in clonogenic assay” value ([6]; RT112)?
Answer: Cancer cell lethality was confirmed

Question: And the “concentration effective at killing RT112 bladder cancer cells” value ([6]; RT112)?
Answer: 5.0 mM

Question: And the “concentration required to produce 100% lethality” value ([6]; RT 112, in vitro)?
Answer: 5 mM

Question: What does the source list for “Cyc-[GGGGGGPRGPRPGGGGGG] (cyclic; Cyclic peptide; /note=“cyclic peptide”)”?
Answer: Cell Killing Fibroblasts (Fibroblasts): - - -; Cell Killing RT112 [8]: - - -
